In article PMC11549390, “Activity, structure, and diversity of Type II proline-rich antimicrobial peptides from insects” (EMBO Reports, 2024):
Like-named read-outs stand apart in the source and are kept apart here. No end group written: not given here.

How the values were obtained:
[1] = system: E. coli strain BL21 cells transformed with the pRXG(UGA) plasmid; assay: Stop codon readthrough assay (RFP-UGA-GFP reporter, drop-diffusion); format: cell-based, Escherichia coli; settings: subinhibitory concentrations, M9 agar, 2 µL of 2 mM peptide, 37 °C 16 h, three independent experiments
Procedure: Figure 4 Newly identified PrAMPs cause stop codon readthrough in bacterial cells. Top: In-frame fused genes encoding the reporter proteins RFP and GFP in the pRXG plasmid (Monk et al, [2017]) are separated by an UGA stop codon. […] Api and the modified Api137 (Berthold et al, [2013]) were spotted for comparison. […] Shown are representative plates from three independent experiments.
Stop codon readthrough activity of PrAMPs was determined as previously described (Mangano et al, [2023]). Briefly, E. coli strain BL21 cells transformed with the pRXG(UGA) plasmid (Monk et al, [2017]) were plated as described above for the drop-diffusion test, except that the bacterial lawn was formed on M9 medium/agar plates supplemented with 50 µg/ml of Kan and 0.2% glucose. Peptide solutions (2 µL of 2 mM stocks) were applied. The plates were incubated at 37 °C for 16 h and imaged in Cy2 (GFP) or Cy3 (RFP) channels using the BioRad ChemiDoc Touch imaging system. The images were processed using Image Lab software (BioRad).

K. pneumoniae AR-0112 = format: cell-based, Klebsiella pneumoniae
Procedure: (§1) The minimal inhibitory concentration (MIC) test for the E. coli laboratory strain BL21 and the K. pneumoniae multi-drug-resistant clinical strain AR-0112 (CDC and FDA Antibiotic Resistance Isolate Bank) was performed using the broth microdilution method, adapted from a previously described procedure (Wiegand et al, [2008]). The MIC tests were conducted either in 33% Tryptic Soy Broth (TSB) (Berthold et al, [2013]), or in RPMI/Serum (prepared by combining Roswell Park Memorial Institute medium 1640, Mueller Hinton Broth, and fetal bovine serum in the proportion 100:5:20, v/v/v) (Belanger et al, [2020]).

E. coli BL21 = format: cell-based, Escherichia coli
Procedure: as §1

| Compound | MIC (K. pneumoniae AR-0112; AR-0112) | MIC (E. coli BL21; BL21) | other results |
| --- | --- | --- | --- |
| O=C(N[C@H](CO)[C@H](O)c1ccc([N+](=O)[O-])cc1)C(Cl)Cl [chloramphenicol] | – | – | Induction of stop codon readthrough (GFP halo) [1]: does not induce stop codon readthrough |
| ALNRPVYVPPPRPPHPRL [Mge1] | 1 µM | – | – |
| GNRPNIPTYIPRPRPPHPRL [Fva1] | – | – | MIC (E. coli BL21; E. coli BL21, 33% TSB, broth microdilution, performed in triplicate): 0.125 µM; MIC (E. coli BL21; E. coli BL21, RPMI/Serum (RPMI 1640:Mueller Hinton Broth:fetal bovine serum 100:5:20), broth microdilution, performed in triplicate): 0.25 µM; MIC (K. pneumoniae AR-0112; K. pneumoniae AR-0112 (multi-drug-resistant clinical strain), 33% TSB, broth microdilution, performed in triplicate): 1 µM; MIC (K. pneumoniae AR-0112; K. pneumoniae AR-0112, RPMI/Serum (RPMI 1640:Mueller Hinton Broth:fetal bovine serum 100:5:20), broth microdilution, performed in triplicate): 16 µM |
| GSKPVRPPPPIRPRPPHPRL [Btr1] | – | 0.25 µM | – |
| GSRLMYLPPPPCSPYLHF [Baf1] | – | >64 µM | – |
| SNRPVYIPPPRSPHPRL [Bvo1] | – | >64 µM | – |

Now from value to compound, other results behind:

| MIC (K. pneumoniae AR-0112; AR-0112) | MIC (E. coli BL21; BL21) | Compound | other results |
| --- | --- | --- | --- |
| 2 µM | – | AHKPVYVPPPRPPHPRL [Nme2] | – |
| – | 0.25 µM | GKPNKPRPAPIKPRPPHPRL [Pdi2] | – |
| 2 µM | – | NRPTYVPPPRPPHPRL [Ssp1] | – |
| 2 µM | – | SNKPRPQQVPPRPPHPRL [Vma1] | – |
